# Assay results from patent US20250197405A1, “HETEROAROMATIC COMPOUNDS AS PKMYT1 INHIBITORS AND USE THEREOF” (INSILICO MEDICINE IP LIMITED, priority 2022, published 2025).
# Target: PKMYT1 (Homo sapiens (Human), UniProt Q99640)
# Test: PKMYT1 HTRF assay
# Format: binding
# Details: Tracer 178, GST-Tb, compound 10 μM to 0.5 nM
# Method: Compound serial dilution was performed by Echo, and the final concentrations varied from 10 μM to 0.5 nM. 5 μL/well of Enzyme solution was added to the assay plate containing the compound. The plate was centrifuged at 1000 rpm for 1 min, and incubated at 25° C. for 15 min. […] Next, 5 μL of GST-Tb was added into the assay plate, the plate was centrifuged at 1000 rpm for 1 min, and incubated at 25° C. for 15 min. The assay plate was read on Envision.
# Chain of PKMYT1 (Q99640 whole entry): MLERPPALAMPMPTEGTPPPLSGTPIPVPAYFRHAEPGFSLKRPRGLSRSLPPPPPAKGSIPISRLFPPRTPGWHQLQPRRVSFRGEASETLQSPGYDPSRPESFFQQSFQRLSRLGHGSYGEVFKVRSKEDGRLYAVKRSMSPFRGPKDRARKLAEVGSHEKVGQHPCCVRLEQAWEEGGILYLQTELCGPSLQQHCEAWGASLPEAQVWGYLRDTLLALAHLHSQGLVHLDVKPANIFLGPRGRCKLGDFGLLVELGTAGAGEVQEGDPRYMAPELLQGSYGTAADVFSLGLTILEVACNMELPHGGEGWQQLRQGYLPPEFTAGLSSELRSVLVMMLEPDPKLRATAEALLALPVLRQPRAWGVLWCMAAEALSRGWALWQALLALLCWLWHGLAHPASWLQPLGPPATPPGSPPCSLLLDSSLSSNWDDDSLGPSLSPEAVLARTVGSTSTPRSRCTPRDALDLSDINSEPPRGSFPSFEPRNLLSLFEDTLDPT
row,Structure (SMILES),IC50
1,"Cc1nc(N2CCC2)c2c(C(N)=O)c(N)n(-c3c(C)ccc(O)c3C)c2n1 (atropisomer, axis not shown) [Compound 8]",13 nM
2,Cc1nc(OC(F)F)c2c(C(N)=O)c(N)n(-c3c(C)ccc(O)c3C)c2n1 [Compound 10],3.4 nM
3,"Cc1ccc(O)c(C)c1-n1c(N)c(C(N)=O)c2c(=O)n(C)c(C)cc21 [Compound 3, 2-amino-1-(3-hydroxy-2,6-dimethylphenyl)-5,6-dimethyl-4-oxopyrrolo[3,2-c]pyridine-3-carboxamide]",11.9 nM
4,"Cc1nc(Oc2cnn(C)c2)c2c(C(N)=O)c(N)n(-c3c(C)ccc(O)c3C)c2n1 (atropisomer, axis not shown) [Compound 9]",2.8 nM
5,"Cc1ncc2c(C(N)=O)c(N)n(-c3c(C)ccc(O)c3Cl)c2n1 [Compound 4, 6-amino-7-(2-chloro-3-hydroxy-6-methylphenyl)-2-methylpyrrolo[2,3-d] pyrimidine-5-carboxamide]",4.1 nM
6,Cc1ccc(O)c(C)c1-n1c(N)c(C(N)=O)c2cnc(C(F)(F)F)nc21 [Compound 2],8.9 nM
7,Cc1nc(OCF)c2c(C(N)=O)c(N)n(-c3c(C)ccc(O)c3C)c2n1 [Compound 11],2.3 nM
8,"COc1nc(C)nc2c1c(C(N)=O)c(N)n2-c1c(C)ccc(O)c1C (atropisomer, axis not shown) [Compound 7]",1.5 nM
9,Cc1ccc(O)c(C)c1-n1c(N)c(C(N)=O)c2c(=O)n(CF)c(C)nc21 [Compound 12-P2],1.5 nM
